Test results reported in patent US20190202836A1, “SELECTIVE DUAL INHIBITORS OF PI3 DELTA AND GAMMA PROTEIN KINASES” (Rhizen Pharmaceuticals SA, priority 2014, published 2019).

Test system: pAKT in isolated mouse splenocytes
Experiment: Assay 6C: Inhibition of AKT phosphorylation in isolated mouse splenocytes
Format: cell-based
Conditions: Splenocyte, 0.5 h, LPS 20 μg/mL, 30 minutes, ELISA, read-out: EC50, reduction in phosphorylation of AKT
Method: The PI3K pathway is regulated downstream by AKT, a serine-threonine kinase that modulates several oncogenic processes such as cell proliferation, growth, and survival. Because the spleen is a repertoire for vast quantities of B- and T-lymphocytes, inhibition of LPS-induced AKT phosphorylation was determined ex vivo using isolated mouse splenocytes. Cells were plated and incubated with a desired concentration of Compound A1 for 15 minutes followed by induction with LPS (20 μg/mL) for 30 minutes. Following induction, cells were lysed and pAKT was determined by ELISA using pAKT^S473 capture/detection antibody pair and anti-mouse-HRP secondary antibody. Blank subtracted absorbance values were obtained to calculate percent inhibition of pAKT in test samples.

EC50: 347 nM
SMILES: COc1ccc(-c2nn([C@@H](C)c3oc4cccc(F)c4c(=O)c3-c3cccc(F)c3)c3ncnc(N)c23)cc1NS(C)(=O)=O [Compound A1, (S)—N-(5-(4-amino-1-(1-(5-fluoro-3-(3-fluorophenyl)-4-oxo-4H-chromen-2-yl)ethyl)-1H-pyrazolo[3,4-d]pyrimidin-3-yl)-2-methoxyphenyl)methanesulfonamide]
